The term Ki denotes a measure of affinity in units of concentration, obtained from inhibition or displacement.

The values below come from ChEMBL document CHEMBL5113478, “7-Azaindole, 2,7-diazaindole, and 1H-pyrazole as core structures for novel anticancer agents with potential chemosensitizing properties” (Eur J Med Chem, 2022).

Each structure is given as a SMILES string. Calls of active or inactive are those of the source. The rule behind the calls is not given here. A value given as a limit tells only on which side of the number the result lay.

Test [1] concerns A2780. Put plainly: Antiproliferative activity against human A2780 cells assessed as […] cell proliferation at 10 uM incubated for 48 hrs by WST-1 assay relative to control. The class given is functional.
Test [2] deals with Jurkat. Nature of the test: Antiproliferative activity against human Jurkat cells assessed as […] cell proliferation at 10 uM incubated for 48 hrs in presence of 2 uM of CDDP by WST-1 assay relative to control. Format: functional. A general note: Tetrazolium dyes change colour on reduction, which living cells bring about.
The subject of test [3] is MOLT-4. Put plainly: Antiproliferative activity against human MOLT-4 cells assessed as […] cell proliferation at 10 uM incubated for 48 hrs by WST-1 assay relative to control. The class given is functional.
Test [4] deals with 1321N1. Put plainly: Cytotoxicity against human 1321N1 cells assessed as reduction in cell viability at 15 uM incubated for 48 hrs by MTT assay. Format: functional, cell-based.
For test [5], the system named is HT-29. Nature of the test: Antiproliferative activity against human HT-29 cells assessed as […] cell proliferation at 10 uM incubated for 48 hrs by WST-1 assay relative to control. Format: functional.
Test [6] concerns HeLa. Put plainly: Antiproliferative activity against human HeLa cells assessed as […] cell proliferation at 10 uM incubated for 48 hrs in presence of 15 uM of CDDP by WST-1 assay relative to control. Format: functional.
Test [7] concerns HT-29. Nature of the test: Antiproliferative activity against human HT-29 cells assessed as […] cell proliferation at 10 uM incubated for 48 hrs in presence of 15 uM of CDDP by WST-1 assay relative to control. Format: functional.
Test [8] concerns SAOS-2. Nature of the test: Antiproliferative activity against human SAOS-2 cells assessed as […] cell proliferation at 10 uM incubated for 48 hrs by WST-1 assay relative to control. Format: functional.
Test [9] in a line: Chemo-sensitizing activity against human 1321N1 cells at 15 uM incubated for 48 hrs in presence of TMZ by MTT assay relative to control. The class given is functional.
For test [10], the system named is HeLa. Put plainly: Antiproliferative activity against human HeLa cells assessed as […] cell proliferation at 10 uM incubated for 48 hrs by WST-1 assay relative to control. The class given is functional.
The subject of a further test is GBM. Put plainly: Cytotoxicity against patient-derived human GBM cells assessed as reduction in cell viability at 15 uM incubated for 48 hrs by MTT assay. The class given is functional.
In test [11] the test system is A549. Put plainly: Antiproliferative activity against human A549 cells assessed as […] cell proliferation at 10 uM incubated for 48 hrs by WST-1 assay relative to control. The class given is functional.
Test [12] has as its system A549. Put plainly: Antiproliferative activity against human A549 cells assessed as […] cell proliferation at 10 uM incubated for 48 hrs in presence of 15 uM of CDDP by WST-1 assay relative to control. Format: functional.
In test [13] the test system is Jurkat. Nature of the test: Antiproliferative activity against human Jurkat cells assessed as […] cell proliferation at 10 uM incubated for 48 hrs by WST-1 assay relative to control. The class given is functional.
The subject of test [14] is SAOS-2. Put plainly: Antiproliferative activity against human SAOS-2 cells assessed as […] cell proliferation at 10 uM incubated for 48 hrs in presence of 15 uM of CDDP by WST-1 assay relative to control. Format: functional.
The test system of test [15] is PANC-1. Put plainly: Antiproliferative activity against human PANC-1 cells assessed as […] cell proliferation at 10 uM incubated for 48 hrs by WST-1 assay relative to control. The class given is functional.
Test [16] concerns MCF7. Nature of the test: Antiproliferative activity against human MCF7 cells assessed as […] cell proliferation at 10 uM incubated for 48 hrs by WST-1 assay relative to control. Format: functional.
The test system of test [17] is MOLT-4. Nature of the test: Antiproliferative activity against human MOLT-4 cells assessed as […] cell proliferation at 10 uM incubated for 48 hrs in presence of 2 uM of CDDP by WST-1 assay relative to control. The class given is functional.
Test [18] concerns PANC-1. Put plainly: Antiproliferative activity against human PANC-1 cells assessed as […] cell proliferation at 10 uM incubated for 48 hrs in presence of 15 uM of CDDP by WST-1 assay relative to control. The class given is functional.
Test [19] has as its system A2780. Nature of the test: Antiproliferative activity against human A2780 cells assessed as […] cell proliferation at 10 uM incubated for 48 hrs in presence of 2 uM of CDDP by WST-1 assay relative to control. The class given is functional.
Test [20] concerns MCF7. Nature of the test: Antiproliferative activity against human MCF7 cells assessed as […] cell proliferation at 10 uM incubated for 48 hrs in presence of 10 uM of CDDP by WST-1 assay relative to control. The class given is functional.
Test [21] deals with Serine/threonine-protein kinase ATR (Homo sapiens, UniProt Q13535). Put plainly: Binding affinity to ATR (unknown origin) assessed as inhibition constant.
Test [22] concerns the target T1, Aurora kinase A (Homo sapiens) (UniProt O14965).
T1 sequence (whole entry): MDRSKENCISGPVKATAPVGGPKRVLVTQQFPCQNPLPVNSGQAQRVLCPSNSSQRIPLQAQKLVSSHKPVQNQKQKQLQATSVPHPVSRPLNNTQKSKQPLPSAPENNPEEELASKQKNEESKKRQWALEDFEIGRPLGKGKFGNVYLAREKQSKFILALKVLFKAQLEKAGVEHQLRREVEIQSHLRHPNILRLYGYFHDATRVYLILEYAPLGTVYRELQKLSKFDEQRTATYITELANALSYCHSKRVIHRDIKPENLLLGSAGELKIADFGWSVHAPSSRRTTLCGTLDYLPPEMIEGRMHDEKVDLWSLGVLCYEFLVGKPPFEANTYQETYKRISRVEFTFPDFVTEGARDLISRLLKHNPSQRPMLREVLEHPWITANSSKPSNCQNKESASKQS
Put plainly: Inhibition of human Aurora-A assessed as residual activity at 10 uM relative to control.

Test [23] addresses Vascular endothelial growth factor receptor 3 (Homo sapiens) (UniProt P35916). Nature of the test: Inhibition of human FLT4 assessed as residual activity at 10 uM relative to control.
Test [24] concerns the target Angiopoietin-1 receptor (Homo sapiens) (UniProt Q02763). Put plainly: Inhibition of human Tie2 assessed as residual activity at 10 uM relative to control.
Test [25] concerns 1321N1. Put plainly: Chemo-sensitizing activity against human 1321N1 cells at 15 uM incubated for 48 hrs in presence of TMZ by MTT assay. Format: functional, cell-based.
For test [26], the system named is Mast/stem cell growth factor receptor Kit (Homo sapiens), P10721 [V560G]. Nature of the test: Inhibition of human cKit V560G mutant assessed as residual activity at 10 uM relative to control.
Chain of Mast/stem cell growth factor receptor Kit (Homo sapiens), P10721 [V560G] (P10721 whole entry V560G): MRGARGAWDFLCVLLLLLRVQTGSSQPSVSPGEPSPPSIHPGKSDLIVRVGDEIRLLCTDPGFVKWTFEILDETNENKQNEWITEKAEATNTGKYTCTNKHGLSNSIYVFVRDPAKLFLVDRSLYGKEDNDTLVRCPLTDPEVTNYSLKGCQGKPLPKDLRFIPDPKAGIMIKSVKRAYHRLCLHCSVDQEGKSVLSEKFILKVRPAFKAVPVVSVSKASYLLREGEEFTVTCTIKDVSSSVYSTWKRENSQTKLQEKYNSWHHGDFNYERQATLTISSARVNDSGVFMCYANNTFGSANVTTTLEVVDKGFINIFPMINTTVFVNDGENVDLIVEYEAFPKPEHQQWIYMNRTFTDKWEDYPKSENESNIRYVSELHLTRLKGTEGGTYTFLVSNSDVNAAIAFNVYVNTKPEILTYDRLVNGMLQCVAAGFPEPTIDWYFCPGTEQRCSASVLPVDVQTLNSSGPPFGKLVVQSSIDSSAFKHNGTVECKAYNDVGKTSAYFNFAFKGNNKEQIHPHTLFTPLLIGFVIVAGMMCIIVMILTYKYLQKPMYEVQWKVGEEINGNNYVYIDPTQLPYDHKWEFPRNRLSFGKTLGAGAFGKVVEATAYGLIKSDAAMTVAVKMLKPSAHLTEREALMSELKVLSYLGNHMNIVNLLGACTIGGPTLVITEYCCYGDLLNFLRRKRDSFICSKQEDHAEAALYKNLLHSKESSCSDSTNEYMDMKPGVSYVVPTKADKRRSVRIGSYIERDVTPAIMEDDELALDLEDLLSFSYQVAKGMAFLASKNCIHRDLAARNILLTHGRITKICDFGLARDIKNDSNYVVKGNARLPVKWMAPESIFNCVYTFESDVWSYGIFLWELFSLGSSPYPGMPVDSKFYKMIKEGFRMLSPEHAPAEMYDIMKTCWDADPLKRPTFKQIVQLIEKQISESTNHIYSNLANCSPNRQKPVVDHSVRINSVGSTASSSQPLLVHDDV
The target of test [27] is T2, Cytoplasmic tyrosine-protein kinase BMX (Homo sapiens) (UniProt P51813).
T2 sequence (whole entry): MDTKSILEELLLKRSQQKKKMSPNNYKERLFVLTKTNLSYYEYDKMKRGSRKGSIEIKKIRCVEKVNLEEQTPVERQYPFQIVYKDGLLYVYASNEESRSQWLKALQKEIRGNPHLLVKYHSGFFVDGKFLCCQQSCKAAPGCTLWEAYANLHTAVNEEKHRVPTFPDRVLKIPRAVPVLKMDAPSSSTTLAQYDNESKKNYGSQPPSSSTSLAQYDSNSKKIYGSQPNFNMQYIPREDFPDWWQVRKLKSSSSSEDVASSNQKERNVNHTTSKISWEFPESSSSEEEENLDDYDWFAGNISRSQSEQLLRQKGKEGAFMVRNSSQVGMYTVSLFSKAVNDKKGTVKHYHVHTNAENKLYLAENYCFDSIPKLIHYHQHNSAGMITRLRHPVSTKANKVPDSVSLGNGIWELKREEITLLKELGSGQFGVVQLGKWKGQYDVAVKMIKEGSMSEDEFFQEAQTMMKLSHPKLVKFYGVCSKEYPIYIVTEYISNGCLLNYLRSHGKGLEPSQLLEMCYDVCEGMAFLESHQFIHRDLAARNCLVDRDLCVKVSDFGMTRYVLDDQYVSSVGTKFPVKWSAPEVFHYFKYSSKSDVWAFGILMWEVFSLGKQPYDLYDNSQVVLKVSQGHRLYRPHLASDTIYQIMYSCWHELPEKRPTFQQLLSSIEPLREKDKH
Nature of the test: Inhibition of human Bmx assessed as residual activity at 10 uM relative to control.

In the next test the target is ATR/ATRIP (Homo sapiens) (UniProt Q13535+Q8WXE1). Put plainly: Inhibition of human ATR/ATRIP assessed as residual activity at 10 uM relative to control. Format: protein-complex assay.
For test [28], the target named is Vascular endothelial growth factor receptor 1 (Homo sapiens) (UniProt P17948). Put plainly: Inhibition of human FLT1 assessed as residual activity at 10 uM relative to control.
Test [29] deals with Protein kinase C alpha type (Homo sapiens) (UniProt P17252). Nature of the test: Inhibition of human PKCalpha assessed as residual activity at 10 uM relative to control.
Test [30] deals with High affinity nerve growth factor receptor (Homo sapiens) (UniProt P04629). Put plainly: Inhibition of human TrkA assessed as residual activity at 10 uM relative to control.
Chain of High affinity nerve growth factor receptor (Homo sapiens) (P04629 33-796 limits assumed): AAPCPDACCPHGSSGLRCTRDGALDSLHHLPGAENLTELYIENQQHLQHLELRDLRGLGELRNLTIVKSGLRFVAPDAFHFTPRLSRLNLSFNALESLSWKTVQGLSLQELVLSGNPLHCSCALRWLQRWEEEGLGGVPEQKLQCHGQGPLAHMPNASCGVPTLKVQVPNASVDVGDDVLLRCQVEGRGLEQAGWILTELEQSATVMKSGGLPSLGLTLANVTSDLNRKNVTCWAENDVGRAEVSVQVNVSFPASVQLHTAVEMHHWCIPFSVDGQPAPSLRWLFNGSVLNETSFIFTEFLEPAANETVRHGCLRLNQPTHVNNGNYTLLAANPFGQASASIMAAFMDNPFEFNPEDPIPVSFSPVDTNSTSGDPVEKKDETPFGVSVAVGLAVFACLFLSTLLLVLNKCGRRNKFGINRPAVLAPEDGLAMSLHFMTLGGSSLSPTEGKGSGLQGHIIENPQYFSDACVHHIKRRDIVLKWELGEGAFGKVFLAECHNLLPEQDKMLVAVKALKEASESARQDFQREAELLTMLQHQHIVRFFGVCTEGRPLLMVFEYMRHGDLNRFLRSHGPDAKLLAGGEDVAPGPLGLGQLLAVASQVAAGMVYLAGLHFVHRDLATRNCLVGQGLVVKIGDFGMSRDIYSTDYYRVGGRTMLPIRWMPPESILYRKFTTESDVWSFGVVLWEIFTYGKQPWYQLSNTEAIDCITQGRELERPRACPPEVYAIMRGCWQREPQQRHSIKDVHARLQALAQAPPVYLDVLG
Test [31] concerns the target Fibroblast growth factor receptor 2 (Homo sapiens) (UniProt P21802). Put plainly: Inhibition of human FGFR2 assessed as residual activity at 10 uM relative to control.
For test [32], the target named is Vascular endothelial growth factor receptor 2 (Homo sapiens) (UniProt P35968). Put plainly: Inhibition of human KDR assessed as residual activity at 10 uM relative to control.
Chain of Vascular endothelial growth factor receptor 2 (Homo sapiens) (P35968 whole entry): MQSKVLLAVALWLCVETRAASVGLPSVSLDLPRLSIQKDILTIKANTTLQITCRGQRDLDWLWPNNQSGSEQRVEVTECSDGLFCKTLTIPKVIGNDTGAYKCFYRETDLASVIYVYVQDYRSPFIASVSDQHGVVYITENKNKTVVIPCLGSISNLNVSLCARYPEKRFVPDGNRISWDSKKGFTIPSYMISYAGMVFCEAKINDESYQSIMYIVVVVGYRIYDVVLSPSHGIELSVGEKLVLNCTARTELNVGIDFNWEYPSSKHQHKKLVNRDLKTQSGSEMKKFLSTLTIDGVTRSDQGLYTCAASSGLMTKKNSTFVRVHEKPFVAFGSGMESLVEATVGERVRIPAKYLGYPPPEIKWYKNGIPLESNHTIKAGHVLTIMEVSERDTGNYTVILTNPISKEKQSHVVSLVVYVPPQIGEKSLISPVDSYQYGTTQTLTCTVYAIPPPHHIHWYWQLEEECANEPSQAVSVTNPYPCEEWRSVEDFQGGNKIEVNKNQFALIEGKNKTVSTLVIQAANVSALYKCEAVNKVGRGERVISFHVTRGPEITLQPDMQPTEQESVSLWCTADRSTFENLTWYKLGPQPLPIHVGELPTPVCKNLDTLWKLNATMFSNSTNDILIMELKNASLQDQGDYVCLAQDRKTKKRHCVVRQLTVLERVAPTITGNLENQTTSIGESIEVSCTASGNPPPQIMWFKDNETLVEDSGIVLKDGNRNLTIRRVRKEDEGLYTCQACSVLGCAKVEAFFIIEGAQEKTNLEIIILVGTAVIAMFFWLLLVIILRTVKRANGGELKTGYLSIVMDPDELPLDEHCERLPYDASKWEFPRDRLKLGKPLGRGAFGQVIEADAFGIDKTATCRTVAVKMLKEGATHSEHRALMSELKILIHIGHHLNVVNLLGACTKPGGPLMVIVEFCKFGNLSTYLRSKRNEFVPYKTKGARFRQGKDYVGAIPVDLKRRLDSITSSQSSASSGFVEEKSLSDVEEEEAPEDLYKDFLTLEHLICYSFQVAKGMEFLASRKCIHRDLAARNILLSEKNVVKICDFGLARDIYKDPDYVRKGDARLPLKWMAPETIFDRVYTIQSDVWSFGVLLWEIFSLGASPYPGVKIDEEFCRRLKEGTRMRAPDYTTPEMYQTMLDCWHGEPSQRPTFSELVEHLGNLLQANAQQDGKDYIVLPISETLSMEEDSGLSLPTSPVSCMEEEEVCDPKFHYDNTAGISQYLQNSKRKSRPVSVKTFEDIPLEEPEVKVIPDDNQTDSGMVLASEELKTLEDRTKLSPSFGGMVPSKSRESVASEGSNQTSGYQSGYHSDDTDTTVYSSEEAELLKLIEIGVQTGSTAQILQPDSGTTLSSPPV
Test [33] has as its target Proto-oncogene tyrosine-protein kinase receptor Ret (Homo sapiens) (UniProt P07949). Put plainly: Inhibition of human Ret assessed as residual activity at 10 uM relative to control.
Test [34] addresses Fibroblast growth factor receptor 3 (Homo sapiens) (UniProt P22607). Put plainly: Inhibition of human FGFR3 assessed as residual activity at 10 uM relative to control.

Chain of Vascular endothelial growth factor receptor 3 (Homo sapiens) (P35916 whole entry): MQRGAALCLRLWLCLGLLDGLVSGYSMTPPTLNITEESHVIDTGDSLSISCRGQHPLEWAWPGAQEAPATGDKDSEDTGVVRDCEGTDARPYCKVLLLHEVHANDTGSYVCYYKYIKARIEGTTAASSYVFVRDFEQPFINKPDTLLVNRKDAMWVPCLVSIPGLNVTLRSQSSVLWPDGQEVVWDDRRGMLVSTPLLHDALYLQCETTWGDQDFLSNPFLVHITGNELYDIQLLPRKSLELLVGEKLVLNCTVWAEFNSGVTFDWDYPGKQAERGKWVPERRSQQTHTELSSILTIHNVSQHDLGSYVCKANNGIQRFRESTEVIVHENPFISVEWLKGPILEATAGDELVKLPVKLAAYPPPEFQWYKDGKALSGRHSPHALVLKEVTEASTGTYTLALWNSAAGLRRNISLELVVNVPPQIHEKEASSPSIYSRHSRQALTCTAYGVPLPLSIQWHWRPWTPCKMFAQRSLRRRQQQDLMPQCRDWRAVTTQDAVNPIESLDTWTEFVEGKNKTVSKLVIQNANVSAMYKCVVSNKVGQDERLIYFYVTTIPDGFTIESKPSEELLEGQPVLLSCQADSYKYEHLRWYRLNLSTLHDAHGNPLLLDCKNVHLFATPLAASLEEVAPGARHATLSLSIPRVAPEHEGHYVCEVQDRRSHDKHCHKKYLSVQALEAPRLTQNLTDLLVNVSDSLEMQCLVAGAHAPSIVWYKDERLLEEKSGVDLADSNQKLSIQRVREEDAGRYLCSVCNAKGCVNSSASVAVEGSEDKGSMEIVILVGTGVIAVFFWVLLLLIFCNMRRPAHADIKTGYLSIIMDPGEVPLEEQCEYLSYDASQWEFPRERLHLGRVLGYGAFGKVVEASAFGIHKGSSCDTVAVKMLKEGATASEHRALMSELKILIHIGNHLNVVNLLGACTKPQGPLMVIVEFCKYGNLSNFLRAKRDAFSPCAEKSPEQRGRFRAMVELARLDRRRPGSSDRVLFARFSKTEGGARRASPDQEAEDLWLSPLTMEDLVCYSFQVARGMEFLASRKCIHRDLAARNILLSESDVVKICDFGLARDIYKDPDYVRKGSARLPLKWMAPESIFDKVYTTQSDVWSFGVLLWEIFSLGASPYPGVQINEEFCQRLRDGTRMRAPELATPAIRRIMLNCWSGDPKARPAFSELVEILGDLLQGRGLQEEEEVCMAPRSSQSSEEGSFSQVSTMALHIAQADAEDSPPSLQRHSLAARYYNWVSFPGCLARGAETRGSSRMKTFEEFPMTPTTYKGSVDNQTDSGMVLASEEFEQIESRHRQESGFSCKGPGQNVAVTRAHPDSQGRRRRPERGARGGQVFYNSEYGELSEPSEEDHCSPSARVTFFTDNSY

In the case of `CC(C)S(=O)(=O)c1ccc(-c2cnc3[nH]cc(CN4CCC(c5ccccc5)CC4)c3c2)cc1`, the Activity amounted to 77% in the test with A2780 [1]; 46% in the test with Jurkat [2]; 77% in the test with MOLT-4 [3]; 46% in the test with HeLa [6]; 46% with HT-29 [7]; 77% with SAOS-2 [8]. Besides, the Activity was 100% in test [9]; 77% in the test on HeLa [10]; 77% in the test with A549 [11]; 46% in the test with A549 [12]; 77% in the test with Jurkat [13]; 46% in the test with SAOS-2 [14]. For the same molecule, the Activity in the test on PANC-1 [15] was found to be 77%; in the test with MCF7 [16] it was 77%; with MOLT-4 [17], 46%; in the test with PANC-1 [18], 46%; in the test on A2780 [19], 46%; with MCF7 [20], 46%. Also, the result in the test with 1321N1 [4] and with GBM was Active. The “Cell viability relative to control” value with HT-29 [5] is on record as 77%.
For `Nc1nn2cc(F)cnc2c1C(=O)Nc1cncc(F)c1N1CCC(C(=O)N2CCN(C3COC3)CC2)CC1` [M4344], the inhibition constant (Ki) in test [21] is less than 0.2 nM.
`CC(C)S(=O)(=O)c1ccc(-c2cnc3[nH]nc(C(=O)N4CCC(c5ccccc5)CC4)c3c2)cc1`: the Activity in test [22] was 80%; with A2780 [1], 79%; in the test on Jurkat [2], 49%; in test [23], 39%; in the test on MOLT-4 [3], 79%; in the test on HeLa [6] it was 49%. Also, the Activity in the test on HT-29 [7] came to 49%; in test [24], 70%; with SAOS-2 [8], 79%; in test [26], 89%; in the test on HeLa [10], 79%; in the test on GBM, 50%. Also, the Activity with A549 [11] was found to be 79%; in [27], 98%; at ATR/ATRIP (Homo sapiens), 59%; in the test on A549 [12] it was 49%; in the test with Jurkat [13], 79%; in test [28] it was 61%. Besides, the Activity is 59% in test [29]; 108% in [30]; 49% with SAOS-2 [14]; 105% in test [31]; 73% in test [32]; 79% in the test with PANC-1 [15]. The Activity with MCF7 [16] is 79%; in the test with MOLT-4 [17], 49%; in test [33], 77%; in the test with PANC-1 [18], 49%; in [34] it was 90%; with A2780 [19], 49%. In addition, the Activity in the test on MCF7 [20] stood at 49%. Moreover, the outcome in the test with 1321N1 [4] and in the test on 1321N1 [25] was Active. The “Cell viability relative to control” value with HT-29 [5] was 79%.
